How the values were obtained:
Human whole blood = assay: IRAK4 Whole Blood Assay (IL-6 levels after stimulation with TLR2 agonist lipoteichoic acid); type: cell-based; settings: 10 μg/mL lipoteichoic acid, 5 hours
Summary of the method: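 ACD-A anticoagulated human whole blood preincubated with compound 60 min at 37 °C, 5% CO2, then stimulated 5 h with lipoteichoic acid at 10 μg/mL final. IL-6 in supernatants measured by flow cytometry bead assay.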

IRAK4 = IRAK4 (Homo sapiens (Human), UniProt Q9NWZ3); assay: IRAK4 Inhibition Assay; type: biochemical; settings: ATP 500 μM; IRAK4 0.6 nM; 60 min room temperature; Caliper LABCHIP 3000
Chain of IRAK4 (Q9NWZ3 whole entry, species assumed): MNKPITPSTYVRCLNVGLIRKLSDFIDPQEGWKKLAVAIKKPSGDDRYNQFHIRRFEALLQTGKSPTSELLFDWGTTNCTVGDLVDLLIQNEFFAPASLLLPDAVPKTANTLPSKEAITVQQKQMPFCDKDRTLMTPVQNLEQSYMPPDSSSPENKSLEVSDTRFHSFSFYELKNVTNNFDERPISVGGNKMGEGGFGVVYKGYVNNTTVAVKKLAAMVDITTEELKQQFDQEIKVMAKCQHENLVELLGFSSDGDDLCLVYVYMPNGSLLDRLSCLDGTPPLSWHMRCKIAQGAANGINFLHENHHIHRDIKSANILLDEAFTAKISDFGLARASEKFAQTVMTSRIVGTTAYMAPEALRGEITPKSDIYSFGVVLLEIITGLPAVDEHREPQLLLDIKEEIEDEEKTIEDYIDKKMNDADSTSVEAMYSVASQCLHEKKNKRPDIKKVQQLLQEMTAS

| SMILES | EC50 (Human whole blood) [nM] | IC50 (IRAK4) [nM] |
| --- | --- | --- |
| CC(=O)N[C@H]1CC[C@H](NC(=O)c2cnc3ccc(-c4cncs4)nc3c2NC(C)C)CC1 [Example 156, N-((1r,4r)-4-acetamidocyclohexyl)-4-(isopropylamino)-6-(thiazol-5-yl)-1,5-naphthyridine-3-carboxamide] | 662 | 4.3 |
| CC(C)Nc1c(C(=O)NC[C@@H](F)C(C)(C)O)nnc2ccc(-c3cn[nH]c3)cc12 [Example 158, (R)—N-(2-fluoro-3-hydroxy-3-methylbutyl)-4-(isopropylamino)-6-(1H-pyrazol-4-yl) cinnoline-3-carboxamide] | 802 | 1.6 |
| CC(C)Nc1c(C(=O)NCC2CCS(=O)(=O)C2)nnc2ccc(-c3cn[nH]c3)cc12 (centres unmarked) [Example 159, N-((1,1-dioxidotetrahydrothiophen-3-yl)methyl)-4-(isopropylamino)-6-(1H-pyrazol-4-yl)cinnoline-3-carboxamide] | 556 | 4.7 |
| CC(C)Nc1c(C(=O)NCCN2CCS(=O)(=O)CC2)nnc2ccc(-c3cn[nH]c3)cc12 [Example 160, N-(2-(1,1-dioxidothiomorpholino)ethyl)-4-(isopropylamino)-6-(1H-pyrazol-4-yl)cinnoline-3-carboxamide] | 2090 | 2.7 |

Reference: patent US12492186B2, “Bicyclic heterocyclic compounds useful as IRAK4 inhibitors” (BRISTOL-MYERS SQUIBB COMPANY, priority 2019, dated 2025)
